Experimental data published in patent US9284321B2, “Piperazino[1,2-a]indol-1-ones and [1,4]diazepino[1,2-a]indol-1-one” (Hoffmann-La Roche Inc., priority 2012, dated 2016).

Tests used:
[1] = test system: human embryonic stem cell derived neural stem cells (NSCs); experiment: Neural Stem Cell Proliferation Assay (neurogenesis assay, ATP levels by CellTiterGlo); format: cell-based; conditions: 96 h, compound concentration at which 150% activity of control (100%) is reached, NSC proliferation by ATP level after 4 days incubation, dose response 8 μM to 8 nM
Outline: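 Human ESC-derived NSCs (dual SMAD inhibition) seeded 4 h before compounds, 11-point 2-fold series 8 μM–8 nM; 4 days at 37 °C, 5% CO2. ATP by CellTiterGlo luminescence as cell-number proxy, response as % of media control (0.25% DMSO); EC150 = concentration giving 150% of control.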

Structure (SMILES) | EC (150% of control) [1] [µM] | melting point [°C]
Cc1c2n(c3c(-c4ccc(N(C)C)nc4)cc(Cl)cc13)CCNC2=O [Example 154, 8-Chloro-6-(6-dimethylamino-pyridin-3-yl)-10-methyl-3,4-dihydro-2H-pyrazino[1,2-a]indol-1-one] | 0.022 | 248
Cc1c2n(c3c(-c4cncnc4)cc(F)cc13)CCNC2=O [Example 155, 8-Fluoro-10-methyl-6-pyrimidin-5-yl-3,4-dihydro-2H-pyrazino[1,2-a]indol-1-one] | 0.57 | 289
COc1ncc(-c2cc(F)cc3c(C)c4n(c23)CCNC4=O)cn1 [Example 156, 8-Fluoro-6-(2-methoxy-pyrimidin-5-yl)-10-methyl-3,4-dihydro-2H-pyrazino[1,2-a]indol-1-one] | 0.11 | 271
Cc1c2n(c3c(-c4cnc(N)nc4)cc(F)cc13)CCNC2=O [Example 157, 6-(2-Amino-pyrimidin-5-yl)-8-fluoro-10-methyl-3,4-dihydro-2H-pyrazino[1,2-a]indol-1-one] | 0.19 | 310
Cc1c2n(c3c(-c4ccc(N(C)C)nc4)cc(F)cc13)CCNC2=O [Example 158, 6-(6-Dimethylamino-pyridin-3-yl)-8-fluoro-10-methyl-3,4-dihydro-2H-pyrazino[1,2-a]indol-1-one] | 0.012 | 259
Cc1c2n(c3c(-c4cc(F)c(F)c(F)c4)cc(F)cc13)CCNC2=O [Example 159, 8-Fluoro-10-methyl-6-(3,4,5-trifluoro-phenyl)-3,4-dihydro-2H-pyrazino[1,2-a]indol-1-one] | 0.22 | 250
Cc1c2n(c3c(-c4ccc(N)nc4)cc(F)cc13)CCNC2=O [Example 160, 6-(6-Amino-pyridin-3-yl)-8-fluoro-10-methyl-3,4-dihydro-2H-pyrazino[1,2-a]indol-1-one] | 0.18 | 254
Cc1c2n(c3c(-c4ccc(N)nc4)cc(Cl)cc13)CCNC2=O [Example 161, 6-(6-Amino-pyridin-3-yl)-8-chloro-10-methyl-3,4-dihydro-2H-pyrazino[1,2-a]indol-1-one] | 0.27 | 250
Cc1c2n(c3c(-c4ccc(F)cc4)cc(C#N)cc13)CCNC2=O [Example 162, 6-(4-Fluoro-phenyl)-10-methyl-1-oxo-1,2,3,4-tetrahydro-pyrazino[1,2-a]indole-8-carbonitrile] | 0.021 | 292
Cc1c2n(c3c(-c4ccc(Cl)cc4)cc(C#N)cc13)CCNC2=O [Example 163, 6-(4-Chloro-phenyl)-10-methyl-1-oxo-1,2,3,4-tetrahydro-pyrazino[1,2-a]indole-8-carbonitrile] | 0.013 | 298
Cc1c2n(c3c(-c4ccc(F)c(F)c4)cc(C#N)cc13)CCNC2=O [Example 164, 6-(3,4-Difluoro-phenyl)-10-methyl-1-oxo-1,2,3,4-tetrahydro-pyrazino[1,2-a]indole-8-carbonitrile] | 0.045 | 243
Cc1c2n(c3c(-c4ccc(C(F)(F)F)cc4)cc(C#N)cc13)CCNC2=O [Example 165, 10-Methyl-1-oxo-6-(4-trifluoromethyl-phenyl)-1,2,3,4-tetrahydro-pyrazino[1,2-a]indole-8-carbonitrile] | 0.018 | 282
Cc1c2n(c3c(-c4ccc(C#N)cc4)cc(C#N)cc13)CCNC2=O [Example 166, 6-(4-Cyano-phenyl)-10-methyl-1-oxo-1,2,3,4-tetrahydro-pyrazino[1,2-a]indole-8-carbonitrile] | 0.028 | 323
Cc1c2n(c3c(-c4ccc(Cl)cc4Cl)cc(C#N)cc13)CCNC2=O [Example 167, 6-(2,4-Dichloro-phenyl)-10-methyl-1-oxo-1,2,3,4-tetrahydro-pyrazino[1,2-a]indole-8-carbonitrile] | 0.002 | 274
Cc1c2n(c3c(-c4ccnc(F)c4)cc(C#N)cc13)CCNC2=O [Example 168, 6-(2-Fluoro-pyridin-4-yl)-10-methyl-1-oxo-1,2,3,4-tetrahydro-pyrazino[1,2-a]indole-8-carbonitrile] | 0.064 | 256
Cc1c2n(c3c(-c4ccc(F)nc4)cc(C#N)cc13)CCNC2=O [Example 169, 6-(6-Fluoro-pyridin-3-yl)-10-methyl-1-oxo-1,2,3,4-tetrahydro-pyrazino[1,2-a]indole-8-carbonitrile] | 0.066 | 272
Cc1c2n(c3c(-c4ccc(OC(F)(F)F)cc4)cc(C#N)cc13)CCNC2=O [Example 170, 10-Methyl-1-oxo-6-(4-trifluoromethoxy-phenyl)-1,2,3,4-tetrahydro-pyrazino[1,2-a]indole-8-carbonitrile] | 0.014 | 239

Structure (SMILES) | EC (150% of control) [1] [µM] | melting point [°C]
Cc1c2n(c3c(-c4nccs4)cc(F)cc13)CCNC2=O [Example 171, 8-Fluoro-10-methyl-6-thiazol-2-yl-3,4-dihydro-2H-pyrazino[1,2-a]indol-1-one] | 0.36 | 268
N#Cc1cc(-c2ccc(Cl)c(F)c2)c2c(c1)cc1n2CCNC1=O [Example 172, 6-(4-Chloro-3-fluoro-phenyl)-1-oxo-1,2,3,4-tetrahydro-pyrazino[1,2-a]indole-8-carbonitrile] | 0.045 | 309
N#Cc1cc(-c2ccc(F)cc2F)c2c(c1)cc1n2CCNC1=O [Example 173, 6-(2,4-Difluoro-phenyl)-1-oxo-1,2,3,4-tetrahydro-pyrazino[1,2-a]indole-8-carbonitrile] | 0.01 | 292
N#Cc1cc(-c2ccc(Cl)cc2F)c2c(c1)cc1n2CCNC1=O [Example 174, 6-(4-Chloro-2-fluoro-phenyl)-1-oxo-1,2,3,4-tetrahydro-pyrazino[1,2-a]indole-8-carbonitrile] | 0.019 | 278
N#Cc1cc(-c2ccc(Cl)cc2Cl)c2c(c1)cc1n2CCNC1=O [Example 175, 6-(2,4-Dichloro-phenyl)-1-oxo-1,2,3,4-tetrahydro-pyrazino[1,2-a]indole-8-carbonitrile] | 0.034 | 284.5
N#Cc1ccc(-c2cc(C#N)cc3cc4n(c23)CCNC4=O)cc1 [Example 176, 6-(4-Cyano-phenyl)-1-oxo-1,2,3,4-tetrahydro-pyrazino[1,2-a]indole-8-carbonitrile] | 0.17 | 363
N#Cc1cc(-c2ccnc(F)c2)c2c(c1)cc1n2CCNC1=O [Example 177, 6-(2-Fluoro-pyridin-4-yl)-1-oxo-1,2,3,4-tetrahydro-pyrazino[1,2-a]indole-8-carbonitrile] | 0.68 | 289
Cc1c2n(c3c(-c4ccc(Cl)c(F)c4)cc(C#N)cc13)CCNC2=O [Example 178, 6-(4-Chloro-3-fluoro-phenyl)-10-methyl-1-oxo-1,2,3,4-tetrahydro-pyrazino[1,2-a]indole-8-carbonitrile] | 0.048 | 260
Cc1c2n(c3c(-c4ccc(F)cc4F)cc(C#N)cc13)CCNC2=O [Example 179, 6-(2,4-Difluoro-phenyl)-10-methyl-1-oxo-1,2,3,4-tetrahydro-pyrazino[1,2-a]indole-8-carbonitrile] | 0.013 | 237
Cc1c2n(c3c(-c4ccc(Cl)cc4F)cc(C#N)cc13)CCNC2=O [Example 180, 6-(4-Chloro-2-fluoro-phenyl)-10-methyl-1-oxo-1,2,3,4-tetrahydro-pyrazino[1,2-a]indole-8-carbonitrile] | 0.008 | 270
O=C1NCCn2c1c(C(F)(F)F)c1cc(F)cc(-c3ccc(F)cc3)c12 [Example 181, 8-Fluoro-6-(4-fluoro-phenyl)-10-trifluoromethyl-3,4-dihydro-2H-pyrazino[1,2-a]indol-1-one] | 0.62 | 193
N#Cc1cc(-c2ccc(F)c(F)c2)c2c(c1)c(C(F)(F)F)c1n2CCNC1=O [Example 182, 6-(3,4-Difluoro-phenyl)-1-oxo-10-trifluoromethyl-1,2,3,4-tetrahydro-pyrazino[1,2-a]indole-8-carbonitrile] | 0.29 | 217
Cc1c2n(c3c(-c4ccc(Cl)s4)cc(F)cc13)CCNC2=O [Example 183, 6-(5-Chloro-thiophen-2-yl)-8-fluoro-10-methyl-3,4-dihydro-2H-pyrazino[1,2-a]indol-1-one] | 0.19 | 185
Cc1c2n(c3c(-c4nnc(C(F)(F)F)s4)cc(F)cc13)CCNC2=O [Example 184, 8-Fluoro-10-methyl-6-[5-(trifluoromethyl)-1,3,4-thiadiazol-2-yl]-3,4-dihydro-2H-pyrazino[1,2-a]indol-1-one] | 1.11 | 227
Cc1c2n(c3c(-c4ccc(C#N)s4)cc(F)cc13)CCNC2=O [Example 185, 5-(8-Fluoro-10-methyl-1-oxo-3,4-dihydro-2H-pyrazino[1,2-a]indol-6-yl)thiophene-2-carbonitrile] | 0.11 | 249
Cc1c2n(c3c(-c4ncc(C(F)(F)F)s4)cc(F)cc13)CCNC2=O [Example 186, 8-Fluoro-10-methyl-6-[5-(trifluoromethyl)-1,3-thiazol-2-yl]-3,4-dihydro-2H-pyrazino[1,2-a]indol-1-one] | 0.33 | 263
